Measured values: patent publication US20230144869A1, “METHODS FOR TREATING CYTOKINE RELEASE SYNDROME” (UNIVERSITY HEALTH NETWORK, priority 2020, published 2023)

What was measured:
[1] = test system: PBMCs (effector) with irradiated allogenic PBMCs (stimulator); test: Allogenic mixed lymphocyte reaction (MLR); assay type: cell-based, human; details: 4 days plus 18 hours labeling; FIG. 2A-2C
Method: The allogenic MLR is a cell proliferation assay where one population of lymphocytes (effector cells) is stimulated to proliferate by another genetically distinct population of lymphocytes (stimulator cells), which have been rendered non-proliferative. PBMCs [2×10^5 cells, effector (E) population] and irradiated (IR) allogenic PBMCs [1×10^5 cells, stimulator (S) population] were treated with either Compound 1 or DMSO in RPMI 1640 medium containing 10% heat-inactivated FBS, 2-mercaptoethanol and penicillin-streptomycin antibiotics at 37° C., 5% CO2, and 100% humidity. After 4 days, the cells were labeled with ^3H-thymidine for an additional 18 hours to measure lymphocyte proliferation by liquid scintillation counting. […] Multiple independent experiments utilizing different effector/stimulator pairs were conducted. Data are reported as the mean counts per minute (CPM)±standard deviation (SD) of triplicate wells.

[2] = test system: resting CD4+ and CD8+ T-cells; test: Viability of resting T-cells (annexin V / 7-AAD flow cytometry); assay type: cell-based, human; details: 48 hours; except at high concentrations (30 μM); FIG. 4
Method: (§1) CD3^+ T-cells and CD14^+ monocytes were purified from PBMCs using Human CD3 MicroBeads and Human CD14 MicroBeads, respectively (Miltenyi Biotech). Purified CD3^+ T-cells (2×10^5 cells) or CD14^+ monocytes (2×10^5 cells) were treated with either Compound 1 or DMSO in RPMI 1640 medium containing 10% heat-inactivated FBS, 2-mercaptoethanol and penicillin-streptomycin antibiotics at 37° C., 5% CO2, and 100% humidity. After 48 hours, the cells were stained with antibodies specific for the indicated cell subsets, and annexin V and 7-aminoactinomycin D (7-AAD) cell viability dyes for measurement by flow cytometry. […] Similar data were obtained at 24 and 72 hours (data not shown). Data are representative of several independent experiments utilizing different human PBMC samples, and are reported as the A decrease in percent viability of duplicate wells [mean±standard deviation (SD)].

unstimulated whole blood = test: Whole blood cytokine release assay (CRA); assay type: cell-based; details: whole blood diluted 4:1 with RPMI 1640, 4 hours; LEGENDplex Human Th Cytokine Panel
Method: The potential for cytokine release syndrome in patients treated with Compound 1 was evaluated using a whole blood cytokine release assay (CRA). Fresh whole blood from a healthy human donor was diluted 4:1 with RPMI 1640 medium and cultured for 4 hours in the presence of Compound 1 or DMSO. Lipopolysaccharide (LPS) (1 μg/mL) was used as a positive control. Cytokine levels in serum samples were determined by a LEGENDplex Human Th Cytokine Panel by manufacturer's instructions (BioLegend, Inc.). […] Data listed in Table 1 below are representative of several independent experiments, and are reported as the mean fold change for Compound 1 relative to the DMSO control of duplicate wells.

resting CD14+ monocytes = test: Viability of resting monocytes (annexin V / 7-AAD flow cytometry); assay type: cell-based, human; details: 48 hours; FIG. 4
Method: as §1

[3] = test system: mouse primary cancer-associated fibroblasts (CAFs); test: TGFβ production by primary cancer-associated fibroblasts (CAFs); assay type: cell-based; details: after 3 days; fold change relative to DMSO control; FIG. 3B
Excerpt: Cancer-associated fibroblasts (CAFs) are used as a model system to investigate TGFβ cytokine production. C57BL/6 mice were obtained from The Jackson Laboratory. The Institutional Animal Care and Use Committee of the University Health Network approved all animal procedures. CAFs were obtained from C57BL/6 mice by growing MC38-CEA mouse colon cancer xenografts subcutaneously in a conventional manner. When tumors reached a size of approximately 1000 mm^3 they were excised and disaggregated, and CAFs were isolated with a Tumor-Associated Fibroblast Isolation Kit (Miltenyi Biotec). Isolated CAFs were grown with a MesenCult Expansion Kit (STEMCELL Technologies, Inc.) at 37° C., 5% CO2, 3% O2, and 100% relative humidity. CAFs were seeded into a 96-well plate in DMEM medium containing 10% FBS 24 hours before treatment with either Compound 1 or DMSO. After 3 days, latent TGFβ was determined by a Mouse Latent TGFβ Legend Max kit by manufacturer's instructions (BioLegend, Inc.). Compound 1 inhibited TGFβ production by mouse primary CAFs. Data are representative of several independent experiments, and are reported as the fold change for Compound 1 relative to the DMSO control of duplicate wells.

[4] = test system: anti-CD3 antibody and anti-CD28 antibody-, PHA- or SEB-activated lymphocytes; test: Proliferation of activated lymphocytes in PBMCs (3H-thymidine); assay type: cell-based, human; details: PBMCs stimulated with anti-CD3 and anti-CD28 antibodies, 24 hours plus 18 hours labeling, FIG. 1B
Method: PBMCs (2×10^5 cells) were treated with either Compound 1 or DMSO, and anti-CD3 and anti-CD28 antibodies, PHA or SEB in RPMI 1640 medium containing 10% heat-inactivated FBS, 2-mercaptoethanol and penicillin-streptomycin antibiotics at 37° C., 5% CO2, and 100% humidity. After 24 hours, the cells were labeled with ^3H-thymidine for an additional 18 hours to measure lymphocyte proliferation by liquid scintillation counting. Proliferation of anti-CD3 antibody and anti-CD28 antibody-, PHA- or SEB-activated lymphocytes was inhibited by Compound 1 treatment, as shown in FIG. 1B. Similar data were obtained at 48 hours (data not shown). Data are representative of several independent experiments utilizing different PBMC samples, and are reported as the mean counts per minute (CPM)±standard deviation (SD) of duplicate wells.

[5] = test system: anti-CD3 antibody and anti-CD28 antibody-activated PBMCs; test: Cytokine secretion by anti-CD3 and anti-CD28 antibody-activated PBMCs (LEGENDplex Human Th Cytokine Panel); assay type: cell-based; details: culture supernatants after 24 hours; fold change relative to DMSO control; FIG. 3A
Method: PBMCs (2×10^5 cells) were treated with either Compound 1 or DMSO, and anti-CD3 and anti-CD28 antibodies in RPMI 1640 medium containing 10% heat-inactivated FBS, 2-mercaptoethanol and penicillin-streptomycin antibiotics at 37° C., 5% CO2, and 100% humidity. After 24 hours, cytokine levels in culture supernatants were determined by a LEGENDplex Human Th Cytokine Panel by manufacturer's instructions (BioLegend, Inc.).
In the presence of Compound 1, the level of all measured cytokines decreased, including IL-2, IL-6, IFNγ and TNFα. Data are representative of several independent experiments utilizing different human PBMC samples, and are reported as the fold change for Compound 1 relative to the DMSO control of duplicate wells.

[6] = test system: CD4+ and CD8+ T-cells in peripheral blood mononuclear cells (PBMCs); test: T-cell activation in stimulated PBMCs (activation markers by flow cytometry); assay type: cell-based, human; details: PBMCs stimulated with anti-CD3 and anti-CD28 antibodies, PHA or SEB; 24 or 48 hours; FIG. 1A
[7] = test system: C57BL/6 mice immunized with MOG35-55 peptide; test: Experimental autoimmune encephalomyelitis (EAE) model; assay type: in vivo, mouse; details: 50 mg/kg PO QD during EAE induction; FIG. 5

SMILES	Lymphocyte proliferation in allogenic MLR (3H-thymidine, CPM) [1]	Viability of resting CD4+ and CD8+ T-cells [2]	Induction of cytokine levels predictive of cytokine release syndrome in vivo (unstimulated whole blood)	Viability of resting CD14+ monocytes (resting CD14+ monocytes)	TGFβ production (latent TGFβ) [3]	Lymphocyte proliferation (3H-thymidine, CPM) [4]	Level of all measured cytokines, including IL-2, IL-6, IFNγ and TNFα [5]	CD4+ and CD8+ T-cell activation (cell surface expression of CD25 and CD69, shedding of CD62L) [6]	EAE disease progression (clinical score) [7]
CN1CCN(c2ccc3nc(-c4c(N)c5ccsc5[nH]c4=O)[nH]c3c2)CC1 [Compound 1]	dose-dependent inhibition	no significant effect	did not induce	dose-dependent loss of viability	inhibited	inhibited	decreased	titratable inhibition	–
CN1CCN(c2ccc3nc(-c4c(N)c5sccc5[nH]c4=O)[nH]c3c2)CC1 [Compound 2]	–	–	–	–	–	–	–	–	blocks EAE disease progression
